Reference: patent US10457654B2 (GENENTECH, INC., priority 2017, dated 2019)
Where a name gives a salt, the structure may show the parent alone.

Columns and labels:
[1] = molecular target: T1, hNav1.7 (Homo sapiens (Human), UniProt Q15858); assay: Patch voltage clamp electrophysiology assay (EP), Syncropatch 384PE, CHO cells expressing Nav1.7; assay type: cell-based; conditions: holding potential -50 mV; […] compound incubation; read-out: EP_SP hNav1.7 (Ex. 243B) IC50
Experimental: Electrophysiological Assay (EP) (In Vitro Assay)
The following voltage clamp electrophysiology studies were performed on representative compounds using cells heterologously expressing Nav1.7 or Nav1.5 channels. cDNAs for Nav1.7 (NM_002977) and Nav1.5 (AC137587) were stably expressed in Chinese Hamstr Ovary (CHO) cells and CHL (Chinese Hamster Lung) cells respectively. […] Internal solution consists of (in mM): 110 […], 10 […], 20 EGTA, and 10 Hepes (pH adjusted to 7.2); and external solution contains (in mM): 60 NMDG, 80 NaCl, 4 KCl, 1 MgCl2, 2 CaCl2, 2 D-Glucose monohydrate, 10 Hepes (pH adjusted to 7.4 with NaOH).
The chip is moved into the measuring head and the instrument primes the chip with external and internal solutions. […] cells are added to the chip from a cell hotel, and a negative pressure of −50 mBar is applied to form a seal. Following treatment with seal enhancer solution and wash-off with external solution, negative pressure of −250 mbar is applied for 1 second to achieve the whole-cell configuration, followed by three washing steps in external solution. 20 μl of compounds is added to 40 μl in each well (1:3 dilution of compounds), and after mixing, 20 μl is removed so the volume is retained at 40 μl.
For voltage protocol, an holding potential of −50 mV is applied during the whole experiment. A depolarizing step is applied to −10 mV for 10 ms, followed by a hyperpolarization step to −150 mV for 20 ms to allow channel recovery from inactivation. A second depolarizing step is applied from −150 mV to −10 mV for 10 ms, where currents were measured to derive blocking effects of compounds. Inhibition is determined based on 7.5 min of compound incubation.
Target sequence in this assay (Q15858 other isoform, or with tags, fused parts or gaps): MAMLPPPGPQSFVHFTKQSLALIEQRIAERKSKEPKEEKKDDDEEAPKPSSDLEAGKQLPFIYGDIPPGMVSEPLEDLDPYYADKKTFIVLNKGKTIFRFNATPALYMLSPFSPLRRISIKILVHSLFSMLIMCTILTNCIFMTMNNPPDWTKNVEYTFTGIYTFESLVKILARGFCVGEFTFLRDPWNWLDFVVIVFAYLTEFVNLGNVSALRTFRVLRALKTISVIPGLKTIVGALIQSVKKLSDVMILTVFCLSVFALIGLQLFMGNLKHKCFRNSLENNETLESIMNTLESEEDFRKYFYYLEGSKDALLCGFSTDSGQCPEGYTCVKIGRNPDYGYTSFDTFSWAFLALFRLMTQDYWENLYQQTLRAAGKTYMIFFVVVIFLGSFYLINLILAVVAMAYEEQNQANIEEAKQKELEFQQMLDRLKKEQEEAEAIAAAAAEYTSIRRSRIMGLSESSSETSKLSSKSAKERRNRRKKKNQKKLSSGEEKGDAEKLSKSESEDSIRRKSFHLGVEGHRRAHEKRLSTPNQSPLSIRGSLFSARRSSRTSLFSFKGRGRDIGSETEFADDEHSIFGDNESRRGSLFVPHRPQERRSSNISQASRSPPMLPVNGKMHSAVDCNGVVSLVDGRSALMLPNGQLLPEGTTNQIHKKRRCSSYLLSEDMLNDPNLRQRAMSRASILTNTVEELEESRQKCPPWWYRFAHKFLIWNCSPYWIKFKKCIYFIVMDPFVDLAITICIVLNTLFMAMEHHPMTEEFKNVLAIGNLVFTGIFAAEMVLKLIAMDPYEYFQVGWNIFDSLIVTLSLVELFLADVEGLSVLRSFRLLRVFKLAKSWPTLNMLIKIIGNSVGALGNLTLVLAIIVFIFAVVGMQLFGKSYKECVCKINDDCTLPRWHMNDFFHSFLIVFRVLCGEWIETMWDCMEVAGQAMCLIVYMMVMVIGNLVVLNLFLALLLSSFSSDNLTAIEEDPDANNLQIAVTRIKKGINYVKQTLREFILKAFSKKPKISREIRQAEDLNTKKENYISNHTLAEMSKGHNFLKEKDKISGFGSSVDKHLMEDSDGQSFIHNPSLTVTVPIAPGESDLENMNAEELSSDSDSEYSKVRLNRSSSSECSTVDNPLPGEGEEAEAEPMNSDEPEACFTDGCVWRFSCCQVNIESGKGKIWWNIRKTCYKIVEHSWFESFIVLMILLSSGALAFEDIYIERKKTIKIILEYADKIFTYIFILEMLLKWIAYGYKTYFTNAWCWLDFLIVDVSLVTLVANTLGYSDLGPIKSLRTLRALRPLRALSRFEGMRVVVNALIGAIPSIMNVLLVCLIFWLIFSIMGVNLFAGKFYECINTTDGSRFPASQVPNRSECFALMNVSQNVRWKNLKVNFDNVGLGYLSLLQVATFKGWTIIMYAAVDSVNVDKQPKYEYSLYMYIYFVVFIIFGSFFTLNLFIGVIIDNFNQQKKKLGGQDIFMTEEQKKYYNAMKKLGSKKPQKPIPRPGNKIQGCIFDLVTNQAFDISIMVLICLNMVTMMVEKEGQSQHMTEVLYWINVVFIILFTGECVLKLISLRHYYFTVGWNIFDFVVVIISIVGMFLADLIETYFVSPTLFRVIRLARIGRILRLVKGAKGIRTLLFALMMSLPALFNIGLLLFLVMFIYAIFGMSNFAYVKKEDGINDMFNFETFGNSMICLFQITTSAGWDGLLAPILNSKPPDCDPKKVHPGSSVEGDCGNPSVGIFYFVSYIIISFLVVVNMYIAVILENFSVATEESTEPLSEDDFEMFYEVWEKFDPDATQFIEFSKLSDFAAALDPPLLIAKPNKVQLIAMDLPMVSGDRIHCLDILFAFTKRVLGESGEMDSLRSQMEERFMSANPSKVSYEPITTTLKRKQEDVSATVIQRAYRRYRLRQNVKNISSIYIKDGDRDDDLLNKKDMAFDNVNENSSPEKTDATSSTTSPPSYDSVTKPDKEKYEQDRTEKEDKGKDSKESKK

[2] = molecular target: T1, hNav1.7; assay: Tritiated compound binding to membranes from cells expressing hNav1.7 and the β1 subunit, modified protocol (LBA, Ex. 243B); conditions: 300 pM [3H]compound, room temperature, read-out: Nav1.7 LBA (Ex. 243B) IC50
Target sequence in this assay (Q15858 whole entry, looked up): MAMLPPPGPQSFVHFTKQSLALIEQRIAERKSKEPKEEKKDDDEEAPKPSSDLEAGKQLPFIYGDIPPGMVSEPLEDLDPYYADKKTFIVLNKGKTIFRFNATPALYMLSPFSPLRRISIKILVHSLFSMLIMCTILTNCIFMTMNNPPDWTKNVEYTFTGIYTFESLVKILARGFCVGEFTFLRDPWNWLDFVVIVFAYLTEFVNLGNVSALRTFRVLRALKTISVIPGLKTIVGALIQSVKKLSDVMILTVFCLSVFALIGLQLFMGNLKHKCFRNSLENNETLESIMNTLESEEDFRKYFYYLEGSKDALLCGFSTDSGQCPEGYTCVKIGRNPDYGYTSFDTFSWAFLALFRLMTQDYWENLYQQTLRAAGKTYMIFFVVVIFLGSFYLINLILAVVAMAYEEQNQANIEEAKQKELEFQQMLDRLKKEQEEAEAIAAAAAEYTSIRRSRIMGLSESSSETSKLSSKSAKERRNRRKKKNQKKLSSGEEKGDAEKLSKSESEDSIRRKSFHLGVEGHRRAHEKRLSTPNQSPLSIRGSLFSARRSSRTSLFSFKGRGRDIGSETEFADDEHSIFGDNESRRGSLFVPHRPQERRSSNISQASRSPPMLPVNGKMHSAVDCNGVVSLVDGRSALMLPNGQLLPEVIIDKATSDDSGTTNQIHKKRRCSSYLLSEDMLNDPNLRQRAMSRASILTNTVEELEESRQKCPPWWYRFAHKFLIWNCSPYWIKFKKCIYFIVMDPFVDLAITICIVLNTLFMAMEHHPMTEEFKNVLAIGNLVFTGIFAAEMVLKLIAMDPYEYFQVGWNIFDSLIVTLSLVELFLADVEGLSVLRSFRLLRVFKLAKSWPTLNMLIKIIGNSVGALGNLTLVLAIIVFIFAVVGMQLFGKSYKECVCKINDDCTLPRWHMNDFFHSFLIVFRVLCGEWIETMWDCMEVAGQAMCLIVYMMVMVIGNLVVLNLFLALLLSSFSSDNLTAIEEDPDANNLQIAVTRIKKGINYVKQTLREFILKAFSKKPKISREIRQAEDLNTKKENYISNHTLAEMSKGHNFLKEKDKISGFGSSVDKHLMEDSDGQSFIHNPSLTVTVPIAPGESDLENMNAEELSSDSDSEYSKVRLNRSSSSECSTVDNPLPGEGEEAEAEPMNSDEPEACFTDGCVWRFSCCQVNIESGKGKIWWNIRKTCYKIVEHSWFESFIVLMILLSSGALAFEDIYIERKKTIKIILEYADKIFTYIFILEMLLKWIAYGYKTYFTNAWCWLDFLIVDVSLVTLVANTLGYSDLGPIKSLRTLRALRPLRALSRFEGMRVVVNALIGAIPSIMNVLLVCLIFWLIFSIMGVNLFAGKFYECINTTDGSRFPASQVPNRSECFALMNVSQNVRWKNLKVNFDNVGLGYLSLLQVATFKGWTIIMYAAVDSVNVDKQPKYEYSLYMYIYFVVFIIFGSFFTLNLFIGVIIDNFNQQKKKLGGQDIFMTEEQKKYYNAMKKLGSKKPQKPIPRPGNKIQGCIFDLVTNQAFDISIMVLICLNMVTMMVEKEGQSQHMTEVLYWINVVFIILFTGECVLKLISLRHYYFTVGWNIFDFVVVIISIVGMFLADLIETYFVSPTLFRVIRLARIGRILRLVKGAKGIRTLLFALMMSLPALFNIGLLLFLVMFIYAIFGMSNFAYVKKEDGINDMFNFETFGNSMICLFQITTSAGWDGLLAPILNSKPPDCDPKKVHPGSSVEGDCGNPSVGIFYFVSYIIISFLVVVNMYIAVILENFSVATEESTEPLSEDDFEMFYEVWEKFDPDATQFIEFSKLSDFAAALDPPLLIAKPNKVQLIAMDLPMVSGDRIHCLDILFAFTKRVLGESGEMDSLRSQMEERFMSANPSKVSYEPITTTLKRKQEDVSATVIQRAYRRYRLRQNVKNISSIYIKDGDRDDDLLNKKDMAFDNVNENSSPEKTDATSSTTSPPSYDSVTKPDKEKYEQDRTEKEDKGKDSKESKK
Target sequence in this assay (Q07699 whole entry partner, looked up): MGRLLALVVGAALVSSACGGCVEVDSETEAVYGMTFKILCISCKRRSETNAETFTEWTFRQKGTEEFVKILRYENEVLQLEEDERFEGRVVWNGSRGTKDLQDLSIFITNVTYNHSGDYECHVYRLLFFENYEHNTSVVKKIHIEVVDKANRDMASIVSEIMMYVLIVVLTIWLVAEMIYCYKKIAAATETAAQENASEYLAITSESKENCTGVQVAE

Compound	IC50 [1] [nM]	IC50 [2] [nM]
5-Chloro-4-(((1S,2S)-2-(cyclobutyl(methyl)amino)cyclohexyl)amino)-2-fluoro-N-(thiazol-2-yl)benzenesulfonamide formate [Example 115]	3.29	18
5-chloro-4-(((1S,2S,4S)-4-(3,5-dichlorophenyl)-2-(dimethylamino)cyclohexyl)amino)-2-fluoro-N-(pyrimidin-4-yl)benzenesulfonamide formate [Example 239]	1.5	2.93
CCN(C)[C@H]1CCCC[C@@H]1N1CCOc2cc(S(=O)(=O)Nc3nccs3)c(F)cc21 (racemic) [Example 189, 4-((trans)-2-(ethyl(methyl)amino)cyclohexyl)-6-fluoro-N-(thiazol-2-yl)-3,4-dihydro-2H-benzo[b][1,4]oxazine-7-sulfonamide]	23.4	304
CN(CC(O)CF)[C@H]1CCCC[C@@H]1Nc1cc(F)c(S(=O)(=O)Nc2nccs2)cc1Cl (single isomer, unassigned) [Example 118]	8.51	242
CN(CC(O)CF)[C@H]1CCCC[C@@H]1Nc1cc(F)c(S(=O)(=O)Nc2nccs2)cc1Cl (single isomer, unassigned) [Example 119]	10.7	184
CN(CC(O)C(F)F)[C@H]1CCCC[C@@H]1Nc1cc(F)c(S(=O)(=O)Nc2nccs2)cc1Cl (single isomer, unassigned) [Example 126]	9.25	87.6
CN(CC(O)C(F)F)[C@H]1CCCC[C@@H]1Nc1cc(F)c(S(=O)(=O)Nc2nccs2)cc1Cl (single isomer, unassigned) [Example 127]	6.58	61.5
CN(C)[C@H]1CCC(c2cccc(C(F)(F)F)c2)C[C@@H]1Nc1cc(F)c(S(=O)(=O)Nc2ccncn2)cc1Cl (stereo in doubt) [Example 120, 5-chloro-4-(((1S,2S,5R)-2-(dimethylamino)-5-(3-(trifluoromethyl)phenyl)cyclohexyl)amino)-2-fluoro-N-(pyrimidin-4-yl)benzenesulfonamide]	4.1	26.3
CN(C)[C@H]1CCC(c2cccc(C(F)(F)F)c2)C[C@@H]1Nc1cc(F)c(S(=O)(=O)Nc2ccncn2)cc1Cl (stereo in doubt) [Example 121, 5-chloro-4-(((1S,2S,5S)-2-(dimethylamino)-5-(3-(trifluoromethyl)phenyl)cyclohexyl)amino)-2-fluoro-N-(pyrimidin-4-yl)benzenesulfonamide]	121	1170
O=S(=O)(Nc1nccs1)c1cc(Cl)c(N[C@H]2CCCC[C@@H]2N2CCCC2CO)cc1F (stereo in doubt) [Example 133, 5-chloro-2-fluoro-4-(((1S,2S)-2-((S)-2-(hydroxymethyl)pyrrolidin-1-yl)cyclohexyl)amino)-N-(thiazol-2-yl)benzenesulfonamide]	3.2	20.8
CN(C)[C@H]1CCC(c2ccccc2F)C[C@@H]1Nc1cc(F)c(S(=O)(=O)Nc2nccs2)cc1Cl (stereo in doubt) [Example 173, 5-chloro-4-(((1S,2S,5R)-2-(dimethylamino)-5-(2-fluorophenyl)cyclohexyl)amino)-2-fluoro-N-(thiazol-2-yl)benzenesulfonamide]	2.6	17.7
CN(C)[C@H]1CCC(c2ccccc2F)C[C@@H]1Nc1cc(F)c(S(=O)(=O)Nc2nccs2)cc1Cl (stereo in doubt) [Example 174, 5-chloro-4-(((1S,2S,5S)-2-(dimethylamino)-5-(2-fluorophenyl)cyclohexyl)amino)-2-fluoro-N-(thiazol-2-yl)benzenesulfonamide]	50.2	357
CN(C)[C@H]1CC2C(C[C@@H]1Nc1cc(F)c(S(=O)(=O)Nc3nccs3)cc1Cl)C2(F)F (stereo in doubt) [Example 207, 5-Chloro-4-(((1S,3S,4S,6R)-4-(dimethylamino)-7,7-difluorobicyclo[4.1.0]heptan-3-yl)amino)-2-fluoro-N-(thiazol-2-yl)benzenesulfonamide]	203	1600
CN(C)[C@@H]1CC2C(C[C@H]1Nc1cc(F)c(S(=O)(=O)Nc3nccs3)cc1Cl)C2(F)F (stereo in doubt) [Example 208, 5-Chloro-4-(((1R,3R,4R,6S)-4-(dimethylamino)-7,7-difluorobicyclo[4.1.0]heptan-3-yl)amino)-2-fluoro-N-(thiazol-2-yl)benzenesulfonamide]	6.12	46.7
CN(C)[C@H]1CC2C(C[C@@H]1Nc1cc(F)c(S(=O)(=O)Nc3nccs3)cc1Cl)C2(F)F (stereo in doubt) [Example 209, 5-Chloro-4-(((1R,3S,4S,6S)-4-(dimethylamino)-7,7-difluorobicyclo[4.1.0]heptan-3-yl)amino)-2-fluoro-N-(thiazol-2-yl)benzenesulfonamide]	9.25	160
CN(C)[C@@H]1CC2C(C[C@H]1Nc1cc(F)c(S(=O)(=O)Nc3nccs3)cc1Cl)C2(F)F (stereo in doubt) [Example 210, 5-Chloro-4-(((1S,3R,4R,6R)-4-(dimethylamino)-7,7-difluorobicyclo[4.1.0]heptan-3-yl)amino)-2-fluoro-N-(thiazol-2-yl)benzenesulfonamide]	415	2000
CCN(C)[C@H]1CCCC[C@@H]1Nc1cc(F)c(S(=O)(=O)Nc2nc(C)cs2)cc1Cl [Example 102, 5-chloro-4-(((1S,2S)-2-(ethyl(methyl)amino)cyclohexyl)amino)-2-fluoro-N-(4-methylthiazol-2-yl)benzenesulfonamide formate]	66.5	424
O=S(=O)(Nc1cccc(F)n1)c1cc(Cl)c(N[C@H]2CCCC[C@@H]2N2CC3CC3C2)cc1F (stereo partly drawn) [Example 105, 4-(((1S,2S)-2-(3-azabicyclo[3.1.0]hexan-3-yl)cyclohexyl)amino)-5-chloro-2-fluoro-N-(6-fluoropyridin-2-yl)benzenesulfonamide]	4.5	31.3
O=S(=O)(Nc1cccc(F)n1)c1cc(Cl)c(N[C@@H]2CCCC[C@H]2N2CC3CC3C2)cc1F (stereo partly drawn) [Example 106, 4-(((1R,2R)-2-(3-azabicyclo[3.1.0]hexan-3-yl)cyclohexyl)amino)-5-chloro-2-fluoro-N-(6-fluoropyridin-2-yl)benzenesulfonamide]	74.9	670
CN(C)[C@H]1CCCC[C@@H]1Nc1cc(F)c(S(=O)(=O)Nc2cccc(F)n2)cc1C1CC1 [Example 107, 5-cyclopropyl-4-(((1S,2S)-2-(dimethylamino)cyclohexyl)amino)-2-fluoro-N-(6-fluoropyridin-2-yl)benzenesulfonamide formate]	18	137
O=S(=O)(Nc1ccncn1)c1cc(Cl)c(N[C@H]2CCCC[C@@H]2N2CCCCC2)cc1F [Example 108, 5-chloro-2-fluoro-4-(((1S,2S)-2-(piperidin-1-yl)cyclohexyl)amino)-N-(pyrimidin-4-yl)benzenesulfonamide]	22.6	166
CN1CCC(N(C)[C@H]2CCCC[C@@H]2Nc2cc(F)c(S(=O)(=O)Nc3cccc(F)n3)cc2Cl)CC1 [Example 109, 5-chloro-2-fluoro-N-(6-fluoropyridin-2-yl)-4-(((1S,2S)-2-(methyl(1-methylpiperidin-4-yl)amino)cyclohexyl)amino)benzenesulfonamide]	8.68	50.7
Cc1csc(NS(=O)(=O)c2cc(Cl)c(N[C@H]3CCCC[C@@H]3N(C)CCO)cc2F)n1 [Example 111, 5-chloro-2-fluoro-4-(((1S,2S)-2-((2-hydroxyethyl)(methyl)amino)cyclohexyl)amino)-N-(4-methylthiazol-2-yl)benzenesulfonamide]	23.4	678
CN(C)[C@H]1C[C@@H](C(F)(F)F)CC[C@@H]1Nc1cc(F)c(S(=O)(=O)Nc2ccncn2)cc1Cl [Example 112, 5-chloro-4-(((1S,2S,4S)-2-(dimethylamino)-4-(trifluoromethyl)cyclohexyl)amino)-2-fluoro-N-(pyrimidin-4-yl)benzenesulfonamide]	15.1	229
O=S(=O)(Nc1nccs1)c1cc(Cl)c(N[C@H]2CCCC[C@@H]2N2CCC(F)CC2)cc1F [Example 113, 5-chloro-2-fluoro-4-(((1S,2S)-2-(4-fluoropiperidin-1-yl)cyclohexyl)amino)-N-(thiazol-2-yl)benzenesulfonamide]	11.7	185
CN(C)[C@H]1C[C@@H](c2cccc(C(F)(F)F)c2)CC[C@@H]1Nc1cc(F)c(S(=O)(=O)Nc2ccncn2)cc1F [Example 220, 4-(((1S,2S,4S)-2-(Dimethylamino)-4-(3-(trifluoromethyl)phenyl)cyclohexyl)amino)-2,5-difluoro-N-(pyrimidin-4-yl)benzenesulfonamide]	0.418	–
